What follows are compounds tested against T1, human PAH with the R408W mutation (Homo sapiens, UniProt P00439, R408W) (assay: Cell Based Phenylalanine Flux Assay). Settings: A375 cells expressing human R408W PAH; 24 hrs with compound, then sepiapterin and 13C9,15N-Phenylalanine for 4 hours; 13C-Tyrosine by LC-MS; average where tested multiple times; read-out: AC50.
T1 construct: expressed in transfected cells
T1 sequence (P00439 1-452 R408W): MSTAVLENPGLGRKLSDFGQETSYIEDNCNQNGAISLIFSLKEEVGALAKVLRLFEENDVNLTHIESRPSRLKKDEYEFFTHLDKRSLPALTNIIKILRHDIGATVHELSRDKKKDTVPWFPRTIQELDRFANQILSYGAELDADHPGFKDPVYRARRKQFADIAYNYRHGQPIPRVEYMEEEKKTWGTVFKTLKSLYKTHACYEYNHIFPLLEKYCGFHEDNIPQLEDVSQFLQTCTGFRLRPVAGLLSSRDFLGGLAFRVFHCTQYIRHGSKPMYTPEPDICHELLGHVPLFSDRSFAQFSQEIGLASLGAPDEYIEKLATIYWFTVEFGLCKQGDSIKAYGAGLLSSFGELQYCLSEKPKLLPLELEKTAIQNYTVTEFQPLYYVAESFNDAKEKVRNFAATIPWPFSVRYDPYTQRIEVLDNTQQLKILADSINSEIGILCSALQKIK
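Also: Ten-point dose curve from 2-fold serial dilutions, run in duplicate at 0.5% DMSO final, tracer step used 20 µM sepiapterin and 800 µM labeled phenylalanine.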

Row | SMILES | AC50
1 | CCc1cccn2nc([C@@H]3c4nc[nH]c4CCN3C(=O)c3nnc(-c4ccn(C)n4)o3)cc12 [Example 1927, (S)-(4-(4-ethylpyrazolo [1,5-a]pyridin-2-yl)-1,4,6,7-tetrahydro-5H-imidazo[4,5-c]pyridin-5-yl)(5-(1-methyl-1H-pyrazol-3-yl)-1,3,4-oxadiazol-2-yl)methanone] | < 0.5 µM
2 | CC(C)c1cccn2nc([C@@H]3c4nc[nH]c4CCN3C(=O)c3nnc(-c4cnn(C(F)F)c4)o3)cc12 [Example 1936, (S)-(5-(1-(difluoromethyl)-1H-pyrazol-4-yl)-1,3,4-oxadiazol-2-yl)(4-(4-isopropylpyrazolo[1,5-a]pyridin-2-yl)-1,4,6,7-tetrahydro-5H-imidazo[4,5-c]pyridin-5-yl)methanone] | < 0.5 µM
3 | CC(C)(F)c1nnc(C(=O)N2CCc3[nH]cnc3[C@H]2c2cc3c(Br)cccn3n2)o1 [Example 1938, (S)-(4-(4-bromopyrazolo [1,5-a]pyridin-2-yl)-1,4,6,7-tetrahydro-5H-imidazo [4,5-c]pyridin-5-yl)(5-(2-fluoropropan-2-yl)-1,3,4-oxadiazol-2-yl)methanone] | < 0.5 µM
4 | CC(C)(F)c1nnc(C(=O)N2CCc3[nH]cnc3[C@@H]2c2cc3c(Br)cccn3n2)o1 [Example 1939, (R)-(4-(4-bromopyrazolo [1,5-a]pyridin-2-yl)-1,4,6,7-tetrahydro-5H-imidazo [4,5-c]pyridin-5-yl)(5-(2-fluoropropan-2-yl)-1,3,4-oxadiazol-2-yl)methanone] | 1 to 5 µM
5 | Cc1c(-c2nnc(C(=O)N3CCc4[nH]cnc4[C@H]3c3cc4c(C(C)C)cccn4n3)o2)cnn1C [Example 1948, (S)-(5-(1,5-dimethyl-1H-pyrazol-4-yl)-1,3,4-oxadiazol-2-yl)(4-(4-isopropylpyrazolo [1,5-a]pyridin-2-yl)-1,4,6,7-tetrahydro-5H-imidazo[4,5-c]pyridin-5-yl)methanone] | < 0.5 µM
6 | Cc1c(-c2nnc(C(=O)N3CCc4[nH]cnc4[C@@H]3c3cc4c(C(C)C)cccn4n3)o2)cnn1C [Example 1949, (R)-(5-(1,5-dimethyl-1H-pyrazol-4-yl)-1,3,4-oxadiazol-2-yl)(4-(4-isopropylpyrazolo [1,5-a]pyridin-2-yl)-1,4,6,7-tetrahydro-5H-imidazo[4,5-c]pyridin-5-yl)methanone] | 1 to 5 µM
7 | Fc1ccc(-c2nnc(N3CCc4[nH]cnc4[C@@H]3c3cc4c(F)cccn4n3)o2)cc1 [Example 1952, (R)-2-(4-fluorophenyl)-5-(4-(4-fluoropyrazolo[1,5-a]pyridin-2-yl)-1,4,6,7-tetrahydro-5H-imidazo[4,5-c]pyridin-5-yl)-1,3,4-oxadiazole] | > 5 µM
8 | Fc1ccc(-c2nnc(N3CCc4[nH]cnc4[C@H]3c3cc4c(F)cccn4n3)o2)cc1 [Example 1953, (S)-2-(4-fluorophenyl)-5-(4-(4-fluoropyrazolo[1,5-a]pyridin-2-yl)-1,4,6,7-tetrahydro-5H-imidazo[4,5-c]pyridin-5-yl)-1,3,4-oxadiazole] | < 0.5 µM
9 | Cc1cccn2nc([C@@H]3c4nc[nH]c4CCN3C(=O)c3cnc(C(C)(C)F)o3)cc12 [Example 1959, (S)-(2-(2-fluoropropan-2-yl)oxazol-5-yl)(4-(4-methylpyrazolo[1,5-a]pyridin-2-yl)-1,4,6,7-tetrahydro-5H-imidazo[4,5-c]pyridin-5-yl)methanone] | < 0.5 µM
10 | Cc1cccn2nc([C@H]3c4nc[nH]c4CCN3C(=O)c3cnc(-c4cnn(C)c4C)o3)cc12 [Example 1963, (R)-(2-(1,5-dimethyl-1H-pyrazol-4-yl)oxazol-5-yl)(4-(4-methylpyrazolo[1,5-a]pyridin-2-yl)-1,4,6,7-tetrahydro-5H-imidazo[4,5-c]pyridin-5-yl)methanone] | > 5 µM
11 | O=C(c1nnc(-c2ccccn2)s1)N1CCc2[nH]cnc2[C@H]1c1cc2c(F)cccn2n1 [Example 1968, (S)-(4-(4-fluoropyrazolo [1,5-a]pyridin-2-yl)-1,4,6,7-tetrahydro-5H-imidazo[4,5-c]pyridin-5-yl)(5-(pyridin-2-yl)-1,3,4-thiadiazol-2-yl) methanone] | < 0.5 µM
12 | O=C(c1nnc(-c2ccccn2)s1)N1CCc2[nH]cnc2[C@@H]1c1cc2c(F)cccn2n1 [Example 1969, (R)-(4-(4-fluoropyrazolo [1,5-a]pyridin-2-yl)-1,4,6,7-tetrahydro-5H-imidazo[4,5-c]pyridin-5-yl)(5-(pyridin-2-yl)-1,3,4-thiadiazol-2-yl) methanone] | > 5 µM
13 | Cc1cccn2nc([C@@H]3c4nc[nH]c4CCN3C(=O)c3nnc(-c4ccccn4)s3)cc12 [Example 1970, (S)-(4-(4-methylpyrazolo [1,5-a]pyridin-2-yl)-1,4,6,7-tetrahydro-5H-imidazo[4,5-c]pyridin-5-yl)(5-(pyridin-2-yl)-1,3,4-thiadiazol-2-yl) methanone] | < 0.5 µM
14 | Cc1cccn2nc([C@H]3c4nc[nH]c4CCN3C(=O)c3nnc(-c4ccccn4)s3)cc12 [Example 1971, (R)-(4-(4-methylpyrazolo [1,5-a]pyridin-2-yl)-1,4,6,7-tetrahydro-5H-imidazo[4,5-c]pyridin-5-yl)(5-(pyridin-2-yl)-1,3,4-thiadiazol-2-yl) methanone] | > 5 µM
15 | CC(C)c1cccn2nc([C@H]3c4nc[nH]c4CCN3C(=O)c3nnc(-c4ccn(C(F)F)n4)o3)cc12 [Example 1982, (R)-(5-(1-(difluoromethyl)-1H-pyrazol-3-yl)-1,3,4-oxadiazol-2-yl)(4-(4-isopropylpyrazolo[1,5-a]pyridin-2-yl)-1,4,6,7-tetrahydro-5H-imidazo[4,5-c]pyridin-5-yl)methanone] | > 5 µM
16 | CC(C)c1cccn2nc([C@@H]3c4nc[nH]c4CCN3C(=O)c3nnc(-c4ccn(C(F)F)n4)o3)cc12 [Example 1983, (S)-(5-(1-(difluoromethyl)-1H-pyrazol-3-yl)-1,3,4-oxadiazol-2-yl)(4-(4-isopropylpyrazolo[1,5-a]pyridin-2-yl)-1,4,6,7-tetrahydro-5H-imidazo[4,5-c]pyridin-5-yl)methanone] | < 0.5 µM
17 | Cc1cccn2nc([C@H]3c4nc[nH]c4CCN3C(=O)c3nnc(C4CC4)s3)cc12 [Example 1996, (R)-(5-cyclopropyl-1,3,4-thiadiazol-2-yl)(4-(4-methylpyrazolo[1,5-a]pyridin-2-yl)-1,4,6,7-tetrahydro-5H-imidazo[4,5-c]pyridin-5-yl)methanone] | 1 to 5 µM
18 | O=C(c1ocnc1C1CC1)N1CCc2[nH]cnc2[C@@H]1c1cc2c(C(F)(F)F)cccn2n1 [Example 2015, (R)-(4-cyclopropyloxazol-5-yl)(4-(4-(trifluoromethyl)pyrazolo [1,5-a]pyridin-2-yl)-1,4,6,7-tetrahydro-5H-imidazo[4,5-c]pyridin-5-yl)methanone] | 1 to 5 µM
19 | Cc1cccn2nc([C@H]3c4nc[nH]c4CCN3C(=O)c3nc4ccccc4o3)cc12 [Example 2021, (R)-benzo[d]oxazol-2-yl (4-(4-methylpyrazolo[1,5-a]pyridin-2-yl)-1,4,6,7-tetrahydro-5H-imidazo[4,5-c]pyridin-5-yl)methanone] | > 5 µM
20 | O=C([C@@H]1CC1(F)F)N1CCc2[nH]cnc2[C@H]1c1cc2c(F)cccn2n1 [Example 2030, ((S)-2,2-difluorocyclopropyl) ((S)-4-(4-fluoropyrazolo[1,5-a]pyridin-2-yl)-1,4,6,7-tetrahydro-5H-imidazo[4,5-c]pyridin-5-yl)methanone] | < 0.5 µM
21 | O=C(c1cnc(-c2ccccn2)o1)N1CCc2[nH]cnc2[C@@H]1c1cc2c(C(F)F)cccn2n1 [Example 2035, (R)-(4-(4-(difluoromethyl)pyrazolo[1,5-a]pyridin-2-yl)-1,4,6,7-tetrahydro-5H-imidazo [4,5-c]pyridin-5-yl)(2-(pyridin-2-yl)oxazol-5-yl)methanone] | > 5 µM
22 | O=C(c1ocnc1C1CC1)N1CCc2[nH]cnc2[C@@H]1c1cc2c(C(F)F)cccn2n1 [Example 2038, (R)-(4-cyclopropyloxazol-5-yl)(4-(4-(difluoromethyl)pyrazolo [1,5-a]pyridin-2-yl)-1,4,6,7-tetrahydro-5H-imidazo[4,5-c]pyridin-5-yl)methanone] | 1 to 5 µM
23 | O=C(c1ocnc1C1CC1)N1CCc2[nH]cnc2[C@H]1c1cc2c(C(F)F)cccn2n1 [Example 2039, (S)-(4-cyclopropyloxazol-5-yl)(4-(4-(difluoromethyl)pyrazolo [1,5-a]pyridin-2-yl)-1,4,6,7-tetrahydro-5H-imidazo[4,5-c]pyridin-5-yl)methanone] | < 0.5 µM
24 | O=C(c1ocnc1C1CC1)N1CCc2[nH]cnc2[C@H]1c1cc2c(Cl)cccn2n1 [Example 2040, (S)-(4-(4-chloropyrazolo [1,5-a]pyridin-2-yl)-1,4,6,7-tetrahydro-5H-imidazo [4,5-c]pyridin-5-yl)(4-cyclopropyloxazol-5-yl) methanone] | < 0.5 µM
25 | O=C(c1nc2ccccc2o1)N1CCc2[nH]cnc2[C@H]1c1cc2c(F)cccn2n1 [Example 2050, (S)-benzo[d]oxazol-2-yl (4-(4-fluoropyrazolo[1,5-a]pyridin-2-yl)-1,4,6,7-tetrahydro-5H-imidazo[4,5-c]pyridin-5-yl)methanone] | < 0.5 µM
26 | CC(C)(F)c1nnc(C(=O)N2CCc3[nH]cnc3[C@@H]2c2cc3c(C4CC4)cccn3n2)o1 [Example 2060] | > 5 µM
27 | Fc1cccc(F)c1-c1nnc(N2CCc3[nH]cnc3[C@@H]2c2cc3c(Cl)cccn3n2)o1 [Example 2062, (R)-2-(4-(4-chloropyrazolo [1,5-a]pyridin-2-yl)-1,4,6,7-tetrahydro-5H-imidazo [4,5-c]pyridin-5-yl)-5-(2,6-difluorophenyl)-1,3,4-oxadiazole] | > 5 µM

Source: patent US12673961B2 (Agios Pharmaceuticals, Inc., priority 2022, dated 2026)
